Measured values from patent US20200138764A1, “METHODS AND DEVICES FOR ACTIVATING ADIPOSE TISSUE” (The Procter & Gamble Company, priority 2018, published 2020).
Blank lines part the entries; values can stand above or below the compound they belong to.

Legend:
[1] = system: Human subcutaneous pre-adipocytes; test: Lipogenesis Assay (AdipoRed staining); type: cell-based; conditions: AdipoRed fluorescence, NI = no inhibition at concentration less than/equal to 1 mM
Protocol: Lipogenesis is the process by which acetyl-CoA is converted to fatty acid. Through lipogenesis and subsequent triglyceride synthesis, energy can be stored in the form of adipose tissue (i.e. fats). To determine what effect, if any, activating compounds (shown in TABLE 1) had on lipogenesis, the protocol listed below was used.
To determine whether the activating compounds (shown in TABLE 1) impacted the formation of white adipocytes from pre-adipocytes, a lipogenesis assay was performed. The cells utilized in the protocol were cryo-preserved Human subcutaneous pre-adipocytes superlot (Zen-Bio, Inc., Research Triangle Park, N.C., Cat # SP-F-SL). The growth media used was PM-1 (Zen-Bio, Inc., Research Triangle Park, N.C., cat # PM-1) plus 5 ng/mL Epidermal Growth Factor (EGF). The PM-1+5 ng/mL EGF was prepared by adding 12.5 uL of 200 ug/mL EGF stock to 500 mL PM-1. The differentiation media used was DM-2 (Zen-Bio, Inc., Research Triangle Park, N.C., cat # DM-2). The adipocyte maintenance media used was AM-1 (Zen-Bio, Inc., Research Triangle Park, N.C., cat # AM-1).
First, the human subcutaneous pre-adipocyte cells were thawed in a 37° C. water bath. Next, the thawed pre-adipocyte cells were added to 9 mL of growth medium (PM-1) at 20° C. in a 15 mL polypropylene tube (Bioexpress, Corning, Corning, N.Y.). The tube was centrifuged at 280×g (˜1100 rpm) at 20° C. for 5 min. After 5 min, the supernatant was removed and the accumulated solids were re-suspended in 2 mL of PM-1 using trituration. The suspension of cells was counted under 100× magnification using a Cyto C-Chip hemacytometer (Incyto, Seoul, South Korea, cat # DHC-N01-5). In order to proceed, 15-50 cells per 1×1 mm square in hemacytometer was needed. If, the number of cells per square was not met, 6.7×10^5 (670,000) cells per T75 flask (Bioexpress, Corning, Corning, N.Y.) were added to each square and the suspension was diluted to 20 mL with PM-1. Every other day, new media was added to replace media removed due to metabolism by the cells. The cells were re-counted as described previously. Cells were grown to 80-90% confluence, which took approximately 4-5 days. 80-90% confluence is determined by visual inspection of the area of the flask occupied by the cells. When 80-90% of the flask area has been occupied, cells are at 80-90% confluence. Cell colonies were then split 1:6 by harvesting from a single flask and equally dividing the harvested cells into six flasks. Colonies were not allowed to exceed 3 passages and were not grown to complete confluence. The pre-adipocytes were grown until they contact with other cells in the flask to aid differentiation into white or brown adipocytes.
After the pre-adipocytes were sufficiently grown to 90% confluence, the cells were ready for differentiation and treatment with an activating compound. Cells were washed with 3 mL of PBS and detached using 3 mL of Trypsin EDTA. The cells were incubated at 37° C. for 5 minutes. Next, the cells were centrifuged at 280×g at 20° C. for 5 minutes. The supernatant was discarded and the resulting pellet was re-suspended in 10 mL of PM-1 using trituration. Cells were counted at 100× magnification and the cells were diluted to 86,667 cells/mL (˜13,000 cells/150 μL) by adding the necessary amount of PM-1 to achieve the desired concentration. Upon addition of PM-1, samples were swirled by hand to evenly disperse the cells prior to plating.
Once confluence is reached, 150 μL of differentiation media (DM-2) was added (DAY 0). Samples were incubated at 37° C. for 6 days. On DAY 6, 90 μL of media was removed from each sample via aspiration, without touching the bottom of the well. Next, 140 μL of adipocyte maintenance medium (AM-1) was added. The AM-1 ran down the side of well. On DAY 6, activating compounds were added (2 μL of 10 mM activating compound) to give a final concentration of 100 μM of activating compounds. […]

human TRPM8 = test: TRPM8 Protocol-FLIPR Assay (intracellular Ca2+); type: cell-based; conditions: HEK-293 cells stably transfected with human TRPM8, Fluo-4 AM, relative to benchmark agonist WS-5
Protocol: To determine whether TRPM8 is activated, the intracellular calcium ion (Ca^2+) level was measured from transfected cells with the TRPM8 receptor sequence (SEQ ID NO: 1). HEK-293 (human embryonic kidney) cells stably transfected with human TRPM8 were grown in 15 mL growth medium (high glucose DMEM (Dulbecco's Modification of Eagle's Medium) supplemented with 10% FBS (fetal bovine serum), 100 μg/mL penicillin/streptomycin, 5 μg/mL blasticindin, and 100 μg/mL zeocin) in a 75 cm^2 flask for 3 days at 37° C. in a mammalian cell culture incubator (Forma Scientific Model 3110, Marietta, Ohio) set at 5% CO2. Cells were detached with addition of 2 mL of trypsin-EDTA buffer (GIBCO® 25200, Invitrogen, Grand Island, N.Y.) for about 2-3 min. Trypsin was inactivated by addition of 8 mL growth medium. Cells were transferred to a 50 mL tube and centrifuged at 850 rpm for 3 minutes to remove medium. After centrifugation, a pellet of cells was formed in the bottom of the tube separating them from the supernatant solution. The supernatant was discarded and the cell pellet was suspended in 1 mL of fresh growth medium to which 5 μL (12.5 μg) of Fluo-4 AM (Molecular Probes, Inc., Eugene, Oreg.) calcium indicator was added and incubated for 30 min with gentle shaking. Fluo-4 AM is a fluorescent dye used for quantifying cellular Ca^2+ concentrations in the 100 nM to 1 μM range. At the end of 30 minutes, 45 mL of assay buffer (1×HBSS (Hank's Balanced Salt Solution), 20 mM HEPES (4-(2-Hydroxyethyl)-1-piperazineethanesulfonic acid)) was added to wash cells and the resulting mixture was then centrifuged at 850 rpm for 3 minutes at 20° C. to remove excess buffer and Fluo-4 AM calcium indicator.
The pelleted cells were re-suspended in 10 mL assay buffer and 90 μL aliquots (˜50,000 cells) per well delivered to a 96-well assay plate containing 10 μL of test compounds (1 mM in assay buffer, final concentration 100 μM) or buffer control and incubated at room temperature for 30 minutes. After 30 minutes, a plate (Falcon 353219, Corning Corning N.Y.) was placed into a fluorometric imaging plate reader (FLIPR384 from Molecular Devices, Sunnyvale, Calif.) and basal fluorescence recorded (excitation wave length 488 nm and emission wave length 510 nm). Then 20 μL of 100 mM of TRPM8 agonist WS5 coolant in the assay buffer was added and fluorescence recorded. For determining the direct effect of test compounds on TRPM8, fluorescence was measured immediately after addition of each compound (TABLE 1). Additional discussion of the FLIPR method can be found in Smart et al., Characterization using FLIPR of human vanilloid VR1 receptor pharmacology, European Journal of Pharmacology 417, 51-58 (2001) and Liu et al., Development and validation of a platelet calcium flux assay using a fluorescent imaging plate reader, Analytical Biochemistry 357, 216-224 (2006).
The magnitude of the fluorescence of the active-treated cells was compared to the magnitude of the fluorescence from a benchmark agonist (WS-5), as described above. The percentage of fluorescence as a function of active dose was plotted and a sigmoidal curve was generated. Curve fitting from this dose-response curve yielded the value for TRPM8 IC50 in nM.
TRPM8 activation was determined by measuring intracellular calcium ion (Ca^2+) level from transfected cells with the TRPM8 receptor gene, as described in EXAMPLE 1, the results of which are shown in TABLE 1. IC50 values are provided in column 3 of TABLE 1, which measured the concentration of activating compound needed to reduce intracellular [Ca^2+] by 50%. […]

adipocytes = test: Real Time PCR analysis of adipocytes, in vitro; type: cell-based, human
Protocol: For Real Time PCR analysis of adipocytes, cells from cultures grown in 24 well plates were collected. RNA was isolated using RNeasy Kit (Cat 74104, Qiagen, Germantown, Md.) using manufacturer's protocol. RNA was quantitated using the Nanodrop 1000 (Thermofisher, Waltham, Mass.). cDNA formation was carried out using PowerUp SYBR™ Green Master Mix and real time PCR carried out on QuantStudio 6 machine (ThermoFisher, Waltham, Mass.) per manufacturer protocol. ΔΔCT analysis was done using the Expression Suite software (ThermoFisher) purchased with the instrument.
TABLE 2 used Real Time PCR to determine which proteins were expressed in adipocytes upon treatment with activating compounds. […] Real Time PCR values were relative to a control sample that was not treated with any activating compounds. […] In WS-5 and Menthol, no Real Time PCR value was over 2.0, which indicated only slight changes in mRNA expression.

[2] = Real Time PCR, relative to untreated control = 1

Compound: CC(C)[C@@H]1CC[C@@H](C)C[C@H]1C(=O)NCC(NC(=O)[C@@H](C)N)c1ccccc1 (stereo partly drawn) [Comparative Example 1]
- IC50 ([1]; Homo sapiens): 800 µM

Compound: CC(C)[C@@H]1CC[C@@H](C)C[C@H]1C(=O)OC[C@@H](NC(=O)[C@@H](C)N)c1ccccc1 [Formula VI]
- IC50 ([1]; Homo sapiens): 40 µM
- IC50 (human TRPM8): 0.008 µM

Compound: CC(C)[C@@H]1CC[C@@H](C)C[C@H]1C(=O)OC[C@@H](NC(=O)[C@H](C)N)c1ccccc1 [Formula V]
- IC50 ([1]; Homo sapiens): 80 µM
- IC50 (human TRPM8): 0.34 µM

Continued, in another order:

- IC50 [1]: 900 µM
- IC50 ([1]; Homo sapiens): 800 µM
- IC50 (human TRPM8): 0.01 to 0.012 µM
Compound: CC(C)[C@@H]1CC[C@@H](C)C[C@H]1C(=O)NCC(NC(=O)[C@H](C)N)c1ccccc1 (stereo partly drawn) [Comparative Example 2]

- IC50 ([1]; Homo sapiens): 800 µM
Compound: CC(C)[C@@H]1CC[C@@H](C)C[C@H]1C(=O)NC[C@@H](NC(=O)[C@@H](C)N)c1ccccc1 [Formula IV]
- Relative Expression of mRNA in Adipocytes: 18S (adipocytes; [2]): 0.95
- Relative Expression of mRNA in Adipocytes: ACADM (adipocytes; [2]): 1.4
- Relative Expression of mRNA in Adipocytes: CPT1A (adipocytes; [2]): 1.7
- Relative Expression of mRNA in Adipocytes: FASN (adipocytes; [2]): 1.35
- Relative Expression of mRNA in Adipocytes: GAPDH (adipocytes; [2]): 1
- Relative Expression of mRNA in Adipocytes: PPARGC1A (adipocytes; [2]): 1.1
- Relative Expression of mRNA in Adipocytes: PRDM16 (adipocytes; [2]): 0.7
- Relative Expression of mRNA in Adipocytes: UCP-1 (adipocytes; [2]): 1.8
- Real Time PCR value (any of the proteins of TABLE 2) (adipocytes; upper bound over all proteins, relative to untreated control): ≤ 2
